# Data reported in patent publication US7303618B1, “Ink for ink-jet recording” (Brother Kogyo Kabushiki Kaisha, priority 2006, dated 2007).
# Test: Ozone resistance (OD value reduction of printed patch)
# Assay type: physicochemical
# Conditions: discussion of Table 1
# Excerpt: Each of the inks for ink-jet recording was filled into a desired ink cartridge, and the ink cartridge was attached to a digital multifunction device equipped with an ink-jet printer (DCP-110C, product of Brother Industries, Ltd.) to perform the printing evaluation. First, as an evaluation sample, a gradation sample of each cyan ink was printed on photo glossy paper (Model No. BP60GLA, product of Brother Industries, Ltd.) to prepare a patch having an initial OD value of 1.0. This patch was then subjected to an ozone resistance evaluation test using an Ozone Weather Meter OMS-H (product of Suga Test Instruments Co., Ltd.). That is, the patch was left to stand under the conditions of an ozone concentration of 1 ppm, a chamber temperature of 24° C. and a chamber humidity of 60% RH for 40 hours. Specifically, the color patch printed with each cyan ink and having an OD value of 1.0 before the test was then measured for an OD value after the ozone resistance evaluation test was completed. The OD value was measured by means of a Spectrolino (product of Gretag Macbeth) (light source: D65; viewing angle: 2°; Status A). […]
# The obtained OD value reduction ratio was then evaluated according to the criteria below. When the OD value reduction ratio is less than 30%, the ozone resistance performance for general use is determined to be at an acceptable level. […]
substance,measurement,value
C. I. Direct Blue 199 [Dye (2-C)],Ozone resistance (in words),poor
